Where two headings read alike, the source gives them in different places.
What was measured:
Bcl-2 protein = Bcl-2 protein (histag-Bcl-2, UniProtKB P10415) (Homo sapiens (Human), UniProt P10415); assay: Inhibition of Bcl-2 by the fluorescence polarisation technique; format: binding
Text: For partial inhibitors, the percentage fluorescence polarisation inhibition for a given concentration of the test compound is indicated.

[1] = test system: RS4; 11 leukaemia cell line; assay: In vitro cytotoxicity, Microculture Tetrazolium Assay (MTT); format: cell-based; settings: Homo sapiens, 11 cells exposed for 48 hours
Procedure: The cytotoxicity studies were carried out on the RS4; 11 leukaemia cell line and on H146 small Cell Lung Carcinoma cell line. The cells are distributed onto microplates and exposed to the test compounds for 48 hours. The cell viability is then quantified by a colorimetric assay, the Microculture Tetrazolium Assay (Cancer Res., 1987, 47, 939-942).

[2] = fluorescence polarisation test, incubation for 2 hours, read-out: IC50 (nM) Bcl-2 FP

Sequence of Bcl-2 protein (P10415 whole entry): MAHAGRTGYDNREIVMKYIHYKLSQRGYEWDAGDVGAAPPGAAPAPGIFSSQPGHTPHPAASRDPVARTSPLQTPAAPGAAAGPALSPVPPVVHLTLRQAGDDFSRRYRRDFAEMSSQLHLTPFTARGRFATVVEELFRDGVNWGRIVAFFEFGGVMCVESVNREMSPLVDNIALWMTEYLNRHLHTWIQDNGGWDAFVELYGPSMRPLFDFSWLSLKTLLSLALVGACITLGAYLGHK

SMILES | IC50 (Bcl-2 protein; [2]) [nM] | IC50 [1] [nM] | IC50 (Bcl-2 protein) [nM]
Cc1c(C(=O)N(C)c2ccc(O)cc2)cc(-c2cc3c(cc2C(=O)N2Cc4ccccc4C[C@H]2CCN2CCOCC2)CN(C(=O)Oc2ccccc2)CC3)n1C [Example 216, Phenyl 6-{4-[(4-hydroxyphenyl)(methyl)carbamoyl]-1,5-dimethyl-1H-pyrrol-2-yl}-7-[(3S)-3-[2-(morpholin-4-yl)ethyl]-1,2,3,4-tetrahydroisoquinoline-2-carbonyl]-1,2,3,4-tetrahydroisoquinoline-2-carboxylate] | 2.4 | 2.9 | –
C[C@@H]1Cc2ccccc2CN1C(=O)c1cc2c(cc1-c1cc(C(=O)N(C)c3ccc(O)cc3)c3n1CCCC3)CN(C(=O)N1CC(c3ccccc3)C1)C2 [Example 83, N-(4-Hydroxyphenyl)-N-methyl-3-{6-[(3R)-3-methyl-1,2,3,4-tetrahydroisoquinoline-2-carbonyl]-2-(3-phenylazetidine-1-carbonyl)-2,3-dihydro-1H-isoindol-5-yl}-5,6,7,8-tetrahydroindolizine-1-carboxamide] | 15 | 122 | –
Cc1c(C(=O)N(C)c2ccc(O)cc2)cc(-c2cc3c(cc2C(=O)N2Cc4ccccc4C[C@H]2CN2CCOCC2)CN(C(=O)Oc2cnc4[nH]ccc4c2)CC3)n1C [Example 579, 1H-Pyrrolo[2,3-b]pyridin-5-yl 6-{4-[(4-hydroxyphenyl)(methyl)carbamoyl]-1,5-dimethyl-1H-pyrrol-2-yl}-7-[(3S)-3-(morpholin-4-ylmethyl)-1,2,3,4-tetrahydroisoquinoline-2-carbonyl]-1,2,3,4-tetrahydroisoquinoline-2-carboxylate] | – | 17 | 4.4
CN(C(=O)c1cc(-c2cc3c(cc2C(=O)N2Cc4ccccc4C[C@H]2CN2CCOCC2)CN(C(=O)Oc2ccc(F)cc2)CC3)n2c1CCCC2)c1ccc(O)cc1 [Example 120, 4-Fluorophenyl 6-{1-[(4-hydroxyphenyl)(methyl)carbamoyl]-5,6,7,8-tetrahydroindolizin-3-yl}-7-[(3S)-3-(morpholin-4-ylmethyl)-1,2,3,4-tetrahydroisoquinoline-2-carbonyl]-1,2,3,4-tetrahydroisoquinoline-2-carboxylate] | 2.5 | 8.2 | –
Cc1c(C(=O)N(C)c2ccc(O)cc2)cc(-c2cc3c(cc2C(=O)N2Cc4ccccc4C[C@H]2C)CN(C(=O)Cc2ccccc2)C3)n1C [Example 80, N-(4-Hydroxyphenyl)-N,1,2-trimethyl-5-{6-[(3R)-3-methyl-1,2,3,4-tetrahydroisoquinoline-2-carbonyl]-2-(2-phenylacetyl)-2,3-dihydro-1H-isoindol-5-yl}-1H-pyrrole-3-carboxamide] | 5.5 | 71 | –
Cc1c(C(=O)N(C)c2ccc(O)cc2)cc(-c2cc3c(cc2C(=O)N2Cc4ccccc4C[C@H]2C)CN(C(=O)COCc2ccccc2)C3)n1C [Example 160, 5-{2-[2-(Benzyloxy)acetyl]-6-[(3R)-3-methyl-1,2,3,4-tetrahydroisoquinoline-2-carbonyl]-2,3-dihydro-1H-isoindol-5-yl}-N-(4-hydroxyphenyl)-N,1,2-trimethyl-1H-pyrrole-3-carboxamide] | 6.9 | 86 | –
CN(C(=O)c1cc(-c2cc3c(cc2C(=O)N2Cc4ccccc4C[C@H]2CN2CCOCC2)CN(S(=O)(=O)Cc2ccccc2)C3)n2c1CCCC2)c1ccc(O)cc1 [Example 38, N-(4-Hydroxyphenyl)-N-methyl-3-{6-[(3S)-3-(morpholin-4-ylmethyl)-1,2,3,4-tetrahydroisoquinoline-2-carbonyl]-2-phenylmethanesulfonyl-2,3-dihydro-1H-isoindol-5-yl}-5,6,7,8-tetrahydroindolizine-1-carboxamide] | 23 | 532 | –
CC(=O)N(C)c1ccc(OC(=O)N2CCc3cc(-c4cc(C(=O)N(C)c5ccc(O)cc5)c(C)n4C)c(C(=O)N4Cc5ccccc5C[C@H]4CN4CCOCC4)cc3C2)cc1 [Example 803, 4-(N-Methylacetamido)phenyl 6-{4-[(4-hydroxyphenyl)(methyl)carbamoyl]-1,5-dimethyl-1H-pyrrol-2-yl}-7-[(3S)-3-(morpholin-4-ylmethyl)-1,2,3,4-tetrahydroisoquinoline-2-carbonyl]-1,2,3,4-tetrahydroisoquinoline-2-carboxylate] | 4.6 | 37 | –
Cc1c(C(=O)N(C)c2ccc(O)cc2)cc(-c2cc3c(cc2C(=O)N2Cc4ccccc4C[C@H]2CN2CCOCC2)CN(C(=O)O[C@@H]2C[C@H](C)CC[C@H]2C(C)C)CC3)n1C [Example 797, (1R,2S,5R)-5-Methyl-2-(propan-2-yl)cyclohexyl 6-{4-[(4-hydroxyphenyl)(methyl)carbamoyl]-1,5-dimethyl-1H-pyrrol-2-yl}-7-[(3S)-3-(morpholin-4-ylmethyl)-1,2,3,4-tetrahydroisoquinoline-2-carbonyl]-1,2,3,4-tetrahydroisoquinoline-2-carboxylate] | 21 | 125 | –
C[C@@H]1Cc2ccccc2CN1C(=O)c1cc2c(cc1-c1cc(C(=O)N(C)c3ccc(O)cc3)c3n1CCCC3)CN(C(=O)Cc1ccccc1)C2 [Example 14, N-(4-Hydroxyphenyl)-N-methyl-3-{6-[(3R)-3-methyl-1,2,3,4-tetrahydroisoquinoline-2-carbonyl]-2-(2-phenylacetyl)-2,3-dihydro-1H-isoindol-5-yl}-5,6,7,8-tetrahydroindolizine-1-carboxamide] | 7.9 | 27 | –
C[C@@H]1Cc2ccccc2CN1C(=O)c1cc2c(cc1-c1cc(C(=O)N(C)c3ccc(O)cc3)c3n1CCCC3)CCN(C(=O)Oc1ccc(NCCN(C)C)cc1)C2 [Example 153, 4-{[2-(Dimethylamino)ethyl]amino}phenyl 6-{1-[(4-hydroxyphenyl)(methyl)carbamoyl]-5,6,7,8-tetrahydroindolizin-3-yl}-7-[(3R)-3-methyl-1,2,3,4-tetrahydroisoquinoline-2-carbonyl]-1,2,3,4-tetrahydroisoquinoline-2-carboxylate] | 4.2 | 3.6 | –
Cc1c(C(=O)N(C)c2ccccc2)cc(-c2cc3c(cc2C(=O)N2Cc4ccccc4C[C@H]2C)CN(C(=O)Oc2ccc(CCC(=O)N(C)C)cc2)CC3)n1C [Example 788, 4-[2-(Dimethylcarbamoyl)ethyl]phenyl 6-{1,5-dimethyl-4-[methyl(phenyl)carbamoyl]-1H-pyrrol-2-yl}-7-[(3R)-3-methyl-1,2,3,4-tetrahydroisoquinoline-2-carbonyl]-1,2,3,4-tetrahydroisoquinoline-2-carboxylate] | 4.4 | 14 | –
Cc1cccc(OC(=O)N2CCc3cc(-c4cc(C(=O)N(C)c5ccc(O)cc5)c5n4CCCC5)c(C(=O)N4Cc5ccccc5C[C@H]4CN4CCOCC4)cc3C2)c1 [Example 99, 3-Methylphenyl 6-{1-[(4-hydroxyphenyl)(methyl)carbamoyl]-5,6,7,8-tetrahydroindolizin-3-yl}-7-[(3S)-3-(morpholin-4-ylmethyl)-1,2,3,4-tetrahydroisoquinoline-2-carbonyl]-1,2,3,4-tetrahydroisoquinoline-2-carboxylate] | 5.5 | 13 | –
Cc1c(C(=O)N(C)c2ccc(O)cc2)cc(-c2cc3c(cc2C(=O)N2Cc4ccccc4C[C@H]2C)CN(C(=O)[C@H](O)c2ccccc2)C3)n1C [Example 175, N-(4-Hydroxyphenyl)-5-(2-[(2R)-2-hydroxy-2-phenylacetyl]-6-{[(3R)-3-methyl-3,4-dihydroisoquinolin-2(1H)-yl]carbonyl}-2,3-dihydro-1H-isoindol-5-yl)-N,1,2-trimethyl-1H-pyrrole-3-carboxamide] | 4.2 | 90 | –

From patent US9809574B2, “Isoindoline or isoquinoline compounds, a process for their preparation and pharmaceutical compositions containing them” (LES LABORATOIRES SERVIER, priority 2013, dated 2017)
